Laboratory results taken from ChEMBL document CHEMBL5143585, “Discovery and characterization of benzyloxy piperidine based dopamine 4 receptor antagonists” (Bioorg Med Chem Lett, 2022).

Target: D(2) dopamine receptor (Homo sapiens) (UniProt P14416)
Sequence (P14416 whole entry): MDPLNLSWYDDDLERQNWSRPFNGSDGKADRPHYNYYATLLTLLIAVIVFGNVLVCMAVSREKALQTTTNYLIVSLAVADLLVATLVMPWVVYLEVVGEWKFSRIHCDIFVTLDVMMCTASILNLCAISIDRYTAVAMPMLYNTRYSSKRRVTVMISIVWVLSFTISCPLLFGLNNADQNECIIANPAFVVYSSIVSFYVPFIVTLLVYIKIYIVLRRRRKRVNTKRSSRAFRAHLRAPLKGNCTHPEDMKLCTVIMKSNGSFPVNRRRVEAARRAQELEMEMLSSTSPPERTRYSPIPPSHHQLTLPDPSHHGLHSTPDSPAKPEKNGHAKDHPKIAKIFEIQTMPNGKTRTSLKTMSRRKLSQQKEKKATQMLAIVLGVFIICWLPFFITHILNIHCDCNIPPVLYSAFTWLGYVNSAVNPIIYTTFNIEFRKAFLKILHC
Assay: Displacement of [3H]N-methylspiperone from human D2 receptor expressed in HEK293 cell membrane at 10 uM by competitive inhibition based analysis
Format: cell membranes
With Cc1ccc(CO[C@H]2CCCN(Cc3ccc(Cl)c(Cl)c3)C2)cc1 the inhibition was less than 50%.
Fc1cc(COC2CCN(Cc3ncc4ccccn34)CC2)ccc1Cl gave an inhibition of less than 50%.
For Fc1cccc(COC2CCN(Cc3ncn4ccccc34)CC2)c1, the inhibition was less than 50%.
Work on Cc1ccc(CN2CCC[C@H](OCc3ccc(F)c(C)c3)C2)cc1 yielded an inhibition of less than 50%.
With Cc1cccc(CO[C@H]2CCCN(Cc3cn4ccccc4n3)C2)n1 the inhibition was less than 50%.
Compound FC(F)(F)c1cccc(COC2CCN(Cc3cn4ccccc4n3)CC2)c1 has an inhibition of less than 50%.
Cc1cc(CO[C@H]2CCCN(Cc3cn4ccccc4n3)C2)ccc1F gave an inhibition of less than 50%.
For Cc1nc(CN2CCC(OCc3ccc(Cl)c(F)c3)CC2)c2ccccn12, the inhibition was less than 50%.
For Cc1nc(CN2CCC(OCc3ccc(F)c(F)c3)CC2)c2ccccn12, the inhibition was less than 50%.
Work on Cc1ccccc1CO[C@H]1CCCN(Cc2cn3ccccc3n2)C1 yielded an inhibition of less than 50%.
With Fc1cccc(COC2CCN(Cc3cn4ccccc4n3)CC2)c1 the inhibition was less than 50%.
For FC(F)(F)c1cccc(COC2CCN(Cc3ncc4ccccn34)CC2)c1, the inhibition was less than 50%.
With Fc1cccc(CO[C@H]2CCCN(Cc3ncn4ccccc34)C2)c1 the inhibition was less than 50%.
With Cc1cc(CO[C@H]2CCCN(Cc3ncn4ccccc34)C2)ccc1F the inhibition was less than 50%.
Fc1ccc(CO[C@H]2CCCN(Cc3ncn4ccccc34)C2)cc1F gave an inhibition of less than 50%.
Compound Cc1cccc(CO[C@H]2CCCN(Cc3cc4ccc(Cl)cc4[nH]3)C2)n1 has an inhibition of less than 50%.
Compound FC(F)(F)Oc1cccc(CO[C@H]2CCCN(Cc3cn4ccccc4n3)C2)c1 has an inhibition of less than 50%.

System: not listed separately
Assay: Protein binding in human plasma assessed as unbound fraction
Format: ADME, cell-free
Fc1cc(COC2CCN(Cc3ncc4ccccn34)CC2)ccc1Cl gave a Fu of 1%.
For Fc1cccc(COC2CCN(Cc3ncn4ccccc34)CC2)c1, the Fu was 2.3%.
Compound FC(F)(F)c1cccc(COC2CCN(Cc3cn4ccccc4n3)CC2)c1 has a Fu of 1.8%.
For Cc1nc(CN2CCC(OCc3ccc(Cl)c(F)c3)CC2)c2ccccn12, the Fu was 7.1%.
Compound Fc1cccc(COC2CCN(Cc3cn4ccccc4n3)CC2)c1 has a Fu of 7%.
In the case of Fc1ccc(CO[C@H]2CCCN(Cc3ncn4ccccc34)C2)cc1F, the Fu is reported as 3.9%.

System: not listed separately
Assay: Protein binding in mouse plasma assessed as unbound fraction
Format: ADME, cell-free
Fc1cc(COC2CCN(Cc3ncc4ccccn34)CC2)ccc1Cl showed a Fu of 1.7%.
In the case of Fc1cccc(COC2CCN(Cc3ncn4ccccc34)CC2)c1, the Fu is reported as 40.5%.
Compound FC(F)(F)c1cccc(COC2CCN(Cc3cn4ccccc4n3)CC2)c1 has a Fu of 17.1%.
For Cc1nc(CN2CCC(OCc3ccc(Cl)c(F)c3)CC2)c2ccccn12, the Fu was 13.2%.
With Fc1cccc(COC2CCN(Cc3cn4ccccc4n3)CC2)c1 the Fu was 35.5%.
For Fc1ccc(CO[C@H]2CCCN(Cc3ncn4ccccc34)C2)cc1F, the Fu was 18.1%.

Target: D(1B) dopamine receptor (Homo sapiens, UniProt P21918)
Sequence (P21918 whole entry): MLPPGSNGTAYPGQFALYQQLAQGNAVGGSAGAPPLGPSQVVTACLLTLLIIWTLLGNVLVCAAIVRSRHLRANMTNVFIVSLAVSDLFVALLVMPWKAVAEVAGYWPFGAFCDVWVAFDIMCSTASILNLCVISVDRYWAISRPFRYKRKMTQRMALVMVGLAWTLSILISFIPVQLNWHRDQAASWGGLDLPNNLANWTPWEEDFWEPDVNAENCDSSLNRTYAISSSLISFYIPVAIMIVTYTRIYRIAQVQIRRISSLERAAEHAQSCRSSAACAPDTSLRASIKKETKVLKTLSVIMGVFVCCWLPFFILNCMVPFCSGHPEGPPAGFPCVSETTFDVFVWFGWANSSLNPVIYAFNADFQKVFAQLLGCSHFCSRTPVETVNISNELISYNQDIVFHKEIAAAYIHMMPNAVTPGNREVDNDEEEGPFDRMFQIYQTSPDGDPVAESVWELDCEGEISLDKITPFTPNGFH
Assay: Displacement of [3H]-SCH23390 from human D5 receptor expressed in HEK293 cell membrane at 10 uM by competitive inhibition based analysis
Format: cell membranes
In the case of Cc1ccc(CO[C@H]2CCCN(Cc3ccc(Cl)c(Cl)c3)C2)cc1, the inhibition is reported as less than 50%.
For Fc1cc(COC2CCN(Cc3ncc4ccccn34)CC2)ccc1Cl, the inhibition was less than 50%.
Compound Fc1cccc(COC2CCN(Cc3ncn4ccccc34)CC2)c1 has an inhibition of less than 50%.
For Cc1ccc(CN2CCC[C@H](OCc3ccc(F)c(C)c3)C2)cc1, the inhibition was less than 50%.
With Cc1cccc(CO[C@H]2CCCN(Cc3cn4ccccc4n3)C2)n1 the inhibition was less than 50%.
FC(F)(F)c1cccc(COC2CCN(Cc3cn4ccccc4n3)CC2)c1 gave an inhibition of less than 50%.
With Cc1cc(CO[C@H]2CCCN(Cc3cn4ccccc4n3)C2)ccc1F the inhibition was less than 50%.
With Cc1nc(CN2CCC(OCc3ccc(Cl)c(F)c3)CC2)c2ccccn12 the inhibition was less than 50%.
Work on Cc1nc(CN2CCC(OCc3ccc(F)c(F)c3)CC2)c2ccccn12 yielded an inhibition of less than 50%.
Cc1ccccc1CO[C@H]1CCCN(Cc2cn3ccccc3n2)C1 showed an inhibition of less than 50%.
Compound Fc1cccc(COC2CCN(Cc3cn4ccccc4n3)CC2)c1 has an inhibition of less than 50%.
For FC(F)(F)c1cccc(COC2CCN(Cc3ncc4ccccn34)CC2)c1, the inhibition was less than 50%.
For Fc1cccc(CO[C@H]2CCCN(Cc3ncn4ccccc34)C2)c1, the inhibition was less than 50%.
Work on Cc1cc(CO[C@H]2CCCN(Cc3ncn4ccccc34)C2)ccc1F yielded an inhibition of less than 50%.
Fc1ccc(CO[C@H]2CCCN(Cc3ncn4ccccc34)C2)cc1F gave an inhibition of less than 50%.
In the case of Cc1cccc(CO[C@H]2CCCN(Cc3cc4ccc(Cl)cc4[nH]3)C2)n1, the inhibition is reported as less than 50%.
In the case of FC(F)(F)Oc1cccc(CO[C@H]2CCCN(Cc3cn4ccccc4n3)C2)c1, the inhibition is reported as less than 50%.

Target: D(3) dopamine receptor (Homo sapiens, UniProt P35462)
Sequence (P35462 whole entry): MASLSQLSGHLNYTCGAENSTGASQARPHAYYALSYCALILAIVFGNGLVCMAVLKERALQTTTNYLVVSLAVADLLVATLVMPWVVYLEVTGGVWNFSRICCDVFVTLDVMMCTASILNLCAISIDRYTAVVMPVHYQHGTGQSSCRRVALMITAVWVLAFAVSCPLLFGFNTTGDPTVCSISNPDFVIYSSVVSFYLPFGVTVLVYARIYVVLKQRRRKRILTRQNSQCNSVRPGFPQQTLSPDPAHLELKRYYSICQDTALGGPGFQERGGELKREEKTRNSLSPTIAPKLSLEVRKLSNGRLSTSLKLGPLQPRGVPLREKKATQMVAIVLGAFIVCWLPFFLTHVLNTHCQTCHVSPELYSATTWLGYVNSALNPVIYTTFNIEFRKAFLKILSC
Assay: Displacement of [3H]N-methylspiperone from human D3 receptor expressed in HEK293 cell membrane at 10 uM by competitive inhibition based analysis
Format: cell membranes
In the case of Cc1ccc(CO[C@H]2CCCN(Cc3ccc(Cl)c(Cl)c3)C2)cc1, the inhibition is reported as less than 50%.
With Fc1cc(COC2CCN(Cc3ncc4ccccn34)CC2)ccc1Cl the inhibition was less than 50%.
Compound Fc1cccc(COC2CCN(Cc3ncn4ccccc34)CC2)c1 has an inhibition of less than 50%.
For Cc1ccc(CN2CCC[C@H](OCc3ccc(F)c(C)c3)C2)cc1, the inhibition was less than 50%.
For Cc1cccc(CO[C@H]2CCCN(Cc3cn4ccccc4n3)C2)n1, the inhibition was less than 50%.
Compound FC(F)(F)c1cccc(COC2CCN(Cc3cn4ccccc4n3)CC2)c1 has an inhibition of less than 50%.
Cc1cc(CO[C@H]2CCCN(Cc3cn4ccccc4n3)C2)ccc1F showed an inhibition of less than 50%.
In the case of Cc1nc(CN2CCC(OCc3ccc(Cl)c(F)c3)CC2)c2ccccn12, the inhibition is reported as less than 50%.
For Cc1nc(CN2CCC(OCc3ccc(F)c(F)c3)CC2)c2ccccn12, the inhibition was less than 50%.
Work on Cc1ccccc1CO[C@H]1CCCN(Cc2cn3ccccc3n2)C1 yielded an inhibition of less than 50%.
Fc1cccc(COC2CCN(Cc3cn4ccccc4n3)CC2)c1 showed an inhibition of less than 50%.
For FC(F)(F)c1cccc(COC2CCN(Cc3ncc4ccccn34)CC2)c1, the inhibition was less than 50%.
Work on Fc1cccc(CO[C@H]2CCCN(Cc3ncn4ccccc34)C2)c1 yielded an inhibition of less than 50%.
Cc1cc(CO[C@H]2CCCN(Cc3ncn4ccccc34)C2)ccc1F gave an inhibition of less than 50%.
For Fc1ccc(CO[C@H]2CCCN(Cc3ncn4ccccc34)C2)cc1F, the inhibition was less than 50%.
Compound Cc1cccc(CO[C@H]2CCCN(Cc3cc4ccc(Cl)cc4[nH]3)C2)n1 has an inhibition of less than 50%.
FC(F)(F)Oc1cccc(CO[C@H]2CCCN(Cc3cn4ccccc4n3)C2)c1 showed an inhibition of less than 50%.

Target: T1, D(4) dopamine receptor (Homo sapiens, UniProt P21917)
T1 sequence (P21917 whole entry): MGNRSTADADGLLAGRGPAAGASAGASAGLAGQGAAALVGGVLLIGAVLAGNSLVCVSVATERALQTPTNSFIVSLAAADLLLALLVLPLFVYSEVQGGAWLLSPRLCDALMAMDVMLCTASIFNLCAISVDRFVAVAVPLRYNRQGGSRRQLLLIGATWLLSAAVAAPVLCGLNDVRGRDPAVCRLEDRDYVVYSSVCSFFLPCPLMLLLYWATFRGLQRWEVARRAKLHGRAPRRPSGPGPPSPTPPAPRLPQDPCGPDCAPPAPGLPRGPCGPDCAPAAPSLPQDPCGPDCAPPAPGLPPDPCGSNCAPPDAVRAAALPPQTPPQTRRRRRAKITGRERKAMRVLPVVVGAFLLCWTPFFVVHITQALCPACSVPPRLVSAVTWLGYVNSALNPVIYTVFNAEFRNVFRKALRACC
Assay: Displacement of [3H]N-methylspiperone from human D4 receptor expressed in HEK293 cell membrane by competitive inhibition based analysis
Format: cell membranes
Cc1ccc(CO[C@H]2CCCN(Cc3ccc(Cl)c(Cl)c3)C2)cc1 gave an IC50 of 1.38 µM and a Ki of 1.39 µM.
With Fc1cc(COC2CCN(Cc3ncc4ccccn34)CC2)ccc1Cl the IC50 was 0.158 µM and the Ki was 0.158 µM.
With Fc1cccc(COC2CCN(Cc3ncn4ccccc34)CC2)c1 the IC50 was 0.166 µM and the Ki was 0.166 µM.
Cc1ccc(CN2CCC[C@H](OCc3ccc(F)c(C)c3)C2)cc1 showed an IC50 of 0.166 µM and a Ki of 0.165 µM.
With FC(F)(F)c1cccc(COC2CCN(Cc3cn4ccccc4n3)CC2)c1 the IC50 was 0.166 µM and the Ki was 0.166 µM.
Work on Cc1cc(CO[C@H]2CCCN(Cc3cn4ccccc4n3)C2)ccc1F yielded an IC50 of 0.186 µM and a Ki of 0.187 µM.
Cc1nc(CN2CCC(OCc3ccc(Cl)c(F)c3)CC2)c2ccccn12 gave an IC50 of 0.0955 µM and a Ki of 0.0955 µM.
Work on Cc1nc(CN2CCC(OCc3ccc(F)c(F)c3)CC2)c2ccccn12 yielded an IC50 of 0.479 µM and a Ki of 0.478 µM.
Work on Cc1ccccc1CO[C@H]1CCCN(Cc2cn3ccccc3n2)C1 yielded an IC50 of 1.82 µM and a Ki of 1.83 µM.
For Fc1cccc(COC2CCN(Cc3cn4ccccc4n3)CC2)c1, the IC50 was 0.166 µM and the Ki was 0.167 µM.
Compound FC(F)(F)c1cccc(COC2CCN(Cc3ncc4ccccn34)CC2)c1 has an IC50 of 0.209 µM and a Ki of 0.208 µM.
Compound Fc1cccc(CO[C@H]2CCCN(Cc3ncn4ccccc34)C2)c1 has an IC50 of 1.35 µM and a Ki of 1.34 µM.
Compound Cc1cc(CO[C@H]2CCCN(Cc3ncn4ccccc34)C2)ccc1F has an IC50 of 0.162 µM and a Ki of 0.166 µM.
Compound Fc1ccc(CO[C@H]2CCCN(Cc3ncn4ccccc34)C2)cc1F has an IC50 of 0.447 µM and a Ki of 0.447 µM.
Compound Cc1cccc(CO[C@H]2CCCN(Cc3cc4ccc(Cl)cc4[nH]3)C2)n1 has an IC50 of 0.316 µM and a Ki of 0.319 µM.
Work on FC(F)(F)Oc1cccc(CO[C@H]2CCCN(Cc3cn4ccccc4n3)C2)c1 yielded an IC50 of 0.646 µM and a Ki of 0.646 µM.

Target: D(1A) dopamine receptor (Homo sapiens, UniProt P21728)
Sequence (P21728 whole entry): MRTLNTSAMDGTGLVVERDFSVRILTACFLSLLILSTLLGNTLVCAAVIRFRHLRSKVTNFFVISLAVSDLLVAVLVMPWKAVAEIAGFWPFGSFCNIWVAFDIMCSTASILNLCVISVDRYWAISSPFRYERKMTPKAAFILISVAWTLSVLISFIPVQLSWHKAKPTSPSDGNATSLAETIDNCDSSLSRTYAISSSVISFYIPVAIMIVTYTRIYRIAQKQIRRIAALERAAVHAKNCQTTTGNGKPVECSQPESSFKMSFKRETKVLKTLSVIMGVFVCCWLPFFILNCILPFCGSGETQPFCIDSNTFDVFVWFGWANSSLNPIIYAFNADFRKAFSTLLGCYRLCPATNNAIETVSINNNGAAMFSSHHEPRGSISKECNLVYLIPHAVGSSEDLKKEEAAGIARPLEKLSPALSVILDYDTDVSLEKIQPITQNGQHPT
Assay: Displacement of [3H]-SCH23390 from human D1 receptor expressed in HEK293 cell membrane at 10 uM by competitive inhibition based analysis
Format: cell membranes
Cc1ccc(CO[C@H]2CCCN(Cc3ccc(Cl)c(Cl)c3)C2)cc1 showed an inhibition of less than 50%.
With Fc1cc(COC2CCN(Cc3ncc4ccccn34)CC2)ccc1Cl the inhibition was less than 50%.
Work on Fc1cccc(COC2CCN(Cc3ncn4ccccc34)CC2)c1 yielded an inhibition of less than 50%.
With Cc1ccc(CN2CCC[C@H](OCc3ccc(F)c(C)c3)C2)cc1 the inhibition was less than 50%.
With Cc1cccc(CO[C@H]2CCCN(Cc3cn4ccccc4n3)C2)n1 the inhibition was less than 50%.
With FC(F)(F)c1cccc(COC2CCN(Cc3cn4ccccc4n3)CC2)c1 the inhibition was less than 50%.
Cc1cc(CO[C@H]2CCCN(Cc3cn4ccccc4n3)C2)ccc1F gave an inhibition of less than 50%.
With Cc1nc(CN2CCC(OCc3ccc(Cl)c(F)c3)CC2)c2ccccn12 the inhibition was less than 50%.
Cc1nc(CN2CCC(OCc3ccc(F)c(F)c3)CC2)c2ccccn12 gave an inhibition of less than 50%.
Cc1ccccc1CO[C@H]1CCCN(Cc2cn3ccccc3n2)C1 gave an inhibition of less than 50%.
Work on Fc1cccc(COC2CCN(Cc3cn4ccccc4n3)CC2)c1 yielded an inhibition of less than 50%.
In the case of FC(F)(F)c1cccc(COC2CCN(Cc3ncc4ccccn34)CC2)c1, the inhibition is reported as less than 50%.
Compound Fc1cccc(CO[C@H]2CCCN(Cc3ncn4ccccc34)C2)c1 has an inhibition of less than 50%.
With Cc1cc(CO[C@H]2CCCN(Cc3ncn4ccccc34)C2)ccc1F the inhibition was less than 50%.
Compound Fc1ccc(CO[C@H]2CCCN(Cc3ncn4ccccc34)C2)cc1F has an inhibition of less than 50%.
Compound Cc1cccc(CO[C@H]2CCCN(Cc3cc4ccc(Cl)cc4[nH]3)C2)n1 has an inhibition of less than 50%.
Compound FC(F)(F)Oc1cccc(CO[C@H]2CCCN(Cc3cn4ccccc4n3)C2)c1 has an inhibition of less than 50%.

Target: T2, D(4) dopamine receptor (Homo sapiens) (UniProt P21917)
T2 sequence (whole entry): T1 sequence (P21917 whole entry)
Assay: Displacement of [3H]N-methylspiperone from human D4 receptor expressed in HEK293 cell membrane at 10 uM by competitive inhibition based analysis
Format: cell membranes
Work on Cc1cccc(CO[C@H]2CCCN(Cc3cn4ccccc4n3)C2)n1 yielded an inhibition of 22.5%.
